Data set [1] deals with T1, α1A (rat submaxillary gland) (Rattus norvegicus, UniProt P43140).
T1 construct: α1A (rat submaxillary gland); from tissue; host or cells: rat submaxillary gland
T1 sequence (P43140 1-466): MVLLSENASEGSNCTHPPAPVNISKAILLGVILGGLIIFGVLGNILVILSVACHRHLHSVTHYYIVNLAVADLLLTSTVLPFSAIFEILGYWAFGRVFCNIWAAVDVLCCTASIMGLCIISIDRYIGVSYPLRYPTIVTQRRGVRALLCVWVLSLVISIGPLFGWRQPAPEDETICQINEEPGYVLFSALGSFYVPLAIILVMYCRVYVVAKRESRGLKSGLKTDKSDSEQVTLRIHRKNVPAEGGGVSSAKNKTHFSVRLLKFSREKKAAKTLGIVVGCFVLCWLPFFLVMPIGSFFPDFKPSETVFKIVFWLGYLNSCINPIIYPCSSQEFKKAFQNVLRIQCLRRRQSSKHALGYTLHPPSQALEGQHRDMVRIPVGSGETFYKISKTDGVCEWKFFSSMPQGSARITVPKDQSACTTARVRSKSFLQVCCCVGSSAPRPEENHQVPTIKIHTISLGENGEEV
The data set is described as follows: Radioligand binding, [3H]-prazosin, α1A. The method in brief: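 [3H]-prazosin radioligand displacement; α1A from rat submaxillary gland tissue, α1b hamster and α1d rat receptors each expressed in mouse fibroblasts.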

The next data set concerns the target T2, α1A (rabbit urethra) (Oryctolagus cuniculus, UniProt O02824).
T2 construct: tested for α1A functional activity using rabbit urethra; from tissue; host or cells: rabbit urethra (female New Zealand white rabbits)
T2 sequence (O02824 1-466): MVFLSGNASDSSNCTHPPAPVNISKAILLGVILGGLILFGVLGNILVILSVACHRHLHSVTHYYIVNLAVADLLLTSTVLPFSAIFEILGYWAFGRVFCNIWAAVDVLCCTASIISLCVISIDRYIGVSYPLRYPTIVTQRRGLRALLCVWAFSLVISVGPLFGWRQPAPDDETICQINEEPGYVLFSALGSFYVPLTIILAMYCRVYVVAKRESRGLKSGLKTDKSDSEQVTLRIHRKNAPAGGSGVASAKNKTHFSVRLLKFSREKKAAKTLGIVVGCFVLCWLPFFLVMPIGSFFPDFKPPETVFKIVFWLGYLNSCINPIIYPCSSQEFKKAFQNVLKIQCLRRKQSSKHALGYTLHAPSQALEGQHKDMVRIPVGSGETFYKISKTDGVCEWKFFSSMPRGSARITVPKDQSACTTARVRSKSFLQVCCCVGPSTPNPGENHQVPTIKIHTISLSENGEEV
In words: Agonist tissue response, contraction of rabbit urethra. It is filed as biochemical. Particulars: values without asterisk, read-out: Agonist Tissue Response (pD2) α1A (rab ureth) (converted). The protocol: Most of the compounds were tested for α1A functional activity using rabbit urethra as follows. Female New Zealand white rabbits (2.0-3.5 Kg) were sedated with CO2 and decapitated. […] Subsequent experimental conditions were as described above for the other tissues. Agonist concentration response curves were cumulative except for the vas deferens assay in which the transient response made such measurements impractical.

The test system of data set [2] is anesthetized dogs. The data set is described as follows: Intraurethral pressure (IUP) in anesthetized dogs. Format: in vivo, dog.
In data set [3] the test system is anesthetized dogs. The data set is described as follows: Mean arterial pressure (MAP) in anesthetized dogs. Particulars: iv dose causing a maximum increase in MAP of 20 mm Hg, anesthetized female Beagle dogs. It is filed as in vivo, dog.

pKi: −log10 of the molar value.

By pKi is commonly meant the negative decadic logarithm of the Ki, by convention in mol/L. The low end stands for a large Ki, the high end for a small Ki. Turning to `CCS(=O)(=O)Nc1cccc2c1OCCC2c1c[nH]cn1` (single isomer, unassigned; (+)) [Example 95, (+) N-[4-(1H-imidazol-4-yl)-3,4-dihydro-2H-chromen-8-yl]ethanesulfonamide], the pKi in data set [1] was 6.74. The EC50 at α1A (rabbit urethra) was 1380 nM. The ED (5 mm Hg) in the data set with anesthetized dogs [2] (Canis lupus familiaris, iv dose causing a maximum increase in IUP of 5 mm Hg, anesthetized female Beagle dogs, read-out: Mean IUP ED5) was 0.113 µmol/kg. Moreover, the “Mean Selectivity Ratio MAP ED20/IUP ED5” value in the data set with anesthetized dogs [2] (anesthetized dogs, iv) was 0.99. Moreover, the “Mean MAP ED20” value in the data set on anesthetized dogs [3] was 109.1 nmol/kg.

(Values after US20030073850A1, “4-Imidazole derivatives of benzyl and restricted benzyl sulfonamides, sulfamides, ureas, carbamates, and amides and their use” (priority 1998, published 2003).)
